pIC50, pKd: −log10 of the molar value. Active and inactive are the calls of the source. The calls are words filed in the database; no cut-off is given here. Bridge positions count the residues as written; N and C are the ends. Peptide text beside a SMILES is read from it.
Experiments:
[1] = target: T1, Eukaryotic translation initiation factor 4E (Homo sapiens, UniProt P06730); assay: Binding affinity to recombinant human 10His-tagged eIF4E expressed in Escherichia coli BL21 (DE3) cells assessed as association constant by surface plasmon resonance analysis
[2] = Drug uptake in cytosol of human HeLa cells stably expressing Halo-tagged-GFP assessed as normalized fluorescence in cytosol incubated for 4 hrs by flow cytometry based CAPA; type: ADME, subcellular
[3] = target: T1, Eukaryotic translation initiation factor 4E; assay: Binding affinity to recombinant human 10His-tagged eIF4E expressed in Escherichia coli BL21 (DE3) cells assessed as binding constant by surface plasmon resonance analysis
[4] = target: T1, Eukaryotic translation initiation factor 4E; assay: Inhibition of recombinant human 10His-tagged eIF4E expressed in Escherichia coli BL21 (DE3) cells by catalytic enzyme-linked click chemistry assay
[5] = Drug uptake in cytosol of human HeLa cells stably expressing Halo-tagged-GFP assessed as normalized fluorescence in cytosol at 0.74 uM incubated for 4 hrs by flow cytometry based CAPA relative to control; type: ADME, subcellular
[6] = target: T1, Eukaryotic translation initiation factor 4E; assay: Binding affinity to eIF4E in HEK293 cell lysates assessed as thermal stabilization of protein at 1 to 15 uM incubated for 1 hrs followed by heating at 49 to 52.4 degC for 3 mins by CETSA-based Western blot analysis; type: subcellular; conditions: dose 1-15 µM
MDA-MB-231 = assay: Anti-proliferative activity against human MDA-MB-231 cells after 6 days by CellTiter-Glo assay; type: functional, cell-based; conditions: time 6.0 day
MCF7 = assay: Anti-proliferative activity against human MCF7 cells after 6 days by CellTiter-Glo assay; type: functional, cell-based; conditions: time 6.0 day
[7] = target: T2, EIF4E/EIF4G1 (Homo sapiens) (UniProt P06730+Q04637); assay: Inhibition of eIF4E/eIF4G interaction in human MCF7 cells incubated for 6 hr by m7GDP cap pull down assay; type: cell-based
[8] = target: T1, Eukaryotic translation initiation factor 4E; assay: Inhibition of eIF4E in human MCF7 cells measured up to 42 hrs by m7GDP cap pull down assay; type: cell-based; conditions: time hrs <=42
T47D = assay: Anti-proliferative activity against human T47D cells after 6 days by CellTiter-Glo assay; type: functional, cell-based; conditions: time 6.0 day
[9] = target: T2, EIF4E/EIF4G1 (Homo sapiens); assay: Inhibition of eIF4E/eIF4G interaction in human MDA-MB-231 cells incubated for 6 hr by m7GDP cap pull down assay; type: cell-based
[10] = target: T2, EIF4E/EIF4G1 (Homo sapiens); assay: Inhibition of eIF4E/eIF4G interaction in human T47D cells incubated for 6 hr by m7GDP cap pull down assay; type: cell-based

T1 sequence (P06730 whole entry): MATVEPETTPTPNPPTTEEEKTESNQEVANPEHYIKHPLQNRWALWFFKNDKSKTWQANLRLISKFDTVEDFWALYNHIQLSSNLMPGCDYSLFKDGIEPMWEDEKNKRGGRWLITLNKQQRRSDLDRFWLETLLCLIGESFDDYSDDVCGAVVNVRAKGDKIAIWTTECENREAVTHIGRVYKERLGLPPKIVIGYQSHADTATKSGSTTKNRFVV

Ka [1] [M⁻¹ s⁻¹] | Q50 [2] [µM] | pKd [3] | pIC50 [4] | Drug uptake [5] [%] | Activity [6] | inhibition [7] | Activity [8] | inhibition [9] | inhibition [10] | Structure (SMILES) | Activity (MDA-MB-231) | Activity (MCF7) | Activity (T47D)
630000 |  |  |  |  |  |  |  |  |  | CC[C@H](C)[C@H](NC(=O)[C@H](CCCNC(=N)N)NC(=O)[C@@H](NC(=O)CNC(C)=O)[C@@H](C)O)C(=O)N[C@H](C(=O)N[C@@H](Cc1ccc(O)cc1)C(=O)N[C@@H](CC(=O)O)C(=O)N[C@@H](CCCNC(=N)N)C(=O)N[C@@H](CCCCN)C(=O)N[C@@H](Cc1ccccc1)C(=O)N[C@@H](CC(C)C)C(=O)N[C@@H](CCSC)C(=O)N[C@@H](CCC(=O)O)C(=O)N[C@@H](CS)C(=O)N[C@@H](CCCNC(=N)N)C(=O)N[C@@H](CC(N)=O)C(N)=O)[C@@H](C)CC |  |  | 
580000 | 0.25 | 8.14 | 7.66 | 84 | inactive |  |  |  |  | CC[C@H](C)[C@H](NC(=O)[C@H](CCCNC(=N)N)NC(C)=O)C(=O)N[C@H](C(=O)N[C@@H](Cc1ccc(O)cc1)C(=O)N[C@@H](CC(=O)O)C(=O)N[C@@H](CCCNC(=N)N)C(=O)N[C@H]1CCCCNC(=O)CC[C@@H](C(=O)N[C@@H](CS)C(=O)N[C@@H](CCCNC(=N)N)C(N)=O)NC(=O)[C@H](CCSC)NC(=O)[C@H](CC(C)C)NC(=O)[C@H](Cc2ccccc2)NC1=O)[C@@H](C)CC (Ac-RIIYDRKFLMECR-NH2; lactam 7-11) |  |  | 
3.1e+06 | 1.5 | 8.66 | 8.19 | 20 | Active | Dose-dependent effect | Active | Dose-dependent effect | Dose-dependent effect | CC[C@H](C)[C@H](NC(=O)[C@H](CCCNC(=N)N)NC(C)=O)C(=O)N[C@H](C(=O)N[C@@H](Cc1ccc(O)cc1)C(=O)N[C@@H](CC(=O)O)C(=O)N[C@@H](CCCNC(=N)N)C(=O)N[C@H]1CCC(=O)NCCCC[C@@H](C(=O)N[C@@H](CS)C(=O)N[C@@H](CCCNC(=N)N)C(N)=O)NC(=O)[C@H](CCSC)NC(=O)[C@H](CC(C)C)NC(=O)[C@H](Cc2ccccc2)NC1=O)[C@@H](C)CC (Ac-RIIYDREFLMKCR-NH2; lactam 7-11) | inactive | inactive | inactive

Source: ChEMBL document CHEMBL4765410, “A cell-penetrant lactam-stapled peptide for targeting eIF4E protein-protein interactions” (Eur J Med Chem, 2020)
